Patent US11702404B2, “GLP-1R modulating compounds” (priority 2019, dated 2023)

Experiments:
[1] = biological target: GLP-1R (Homo sapiens, UniProt P43220); assay: GLP-1R activation: cAMP increase in CHO cells stably expressing GLP-1R; format: cell-based; conditions: cAMP increase, CHO cells stably expressing GLP-1R, 10 point dose response, 30 minutes incubation; read-out: EC50
[2] = Microsomal stability, human liver microsomes (predicted hepatic clearance); conditions: predicted from in vitro microsomal stability data

Sequence of GLP-1R (P43220 24-463): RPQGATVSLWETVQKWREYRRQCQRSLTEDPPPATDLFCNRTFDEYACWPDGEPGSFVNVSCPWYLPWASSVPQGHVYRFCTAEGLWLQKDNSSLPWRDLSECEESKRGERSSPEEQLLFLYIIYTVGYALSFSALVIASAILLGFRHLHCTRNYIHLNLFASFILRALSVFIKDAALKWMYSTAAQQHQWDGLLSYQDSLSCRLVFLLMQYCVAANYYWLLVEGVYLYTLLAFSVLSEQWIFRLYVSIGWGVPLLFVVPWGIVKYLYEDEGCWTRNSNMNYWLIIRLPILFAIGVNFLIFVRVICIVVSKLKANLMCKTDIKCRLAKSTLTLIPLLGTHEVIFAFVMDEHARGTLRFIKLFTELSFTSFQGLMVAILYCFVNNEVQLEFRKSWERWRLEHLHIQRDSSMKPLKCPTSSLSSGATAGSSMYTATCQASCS

Row | EC50 [1] | Predicted Hepatic Clearance (Pred. Cl.) [2] | SMILES
1 | 30 pM | 3.67 mL/min/kg | O=C(O)c1cc(F)c2nc(Cc3cc(F)c(-c4nc(OCc5ccc(C(F)F)cc5F)ccc4F)cc3F)n(C[C@@H]3CCO3)c2c1 [Example 769]
2 | 2620 pM | 1.83 mL/min/kg | O=C(O)c1cc(F)c2nc(Cc3ccc(-c4ccc(F)c(OCc5ccc(C(F)F)cc5F)n4)cc3F)n(CC34CC(CO3)C4)c2c1 [Example 770]
3 | 2170 pM | 1.83 mL/min/kg | N#Cc1ccc(COc2nc(-c3ccc(Cc4nc5c(F)cc(C(=O)O)cc5n4CC45CC(CO4)C5)c(F)c3)ccc2F)c(F)c1 [Example 771]
4 | 610 pM | 1.83 mL/min/kg | O=C(O)c1ccc2nc(Cc3cc(F)c(-c4ccc(F)c(OCc5ccc(C(F)F)cc5F)n4)cc3F)n(CC34CC(CO3)C4)c2c1 [Example 772]
5 | 120 pM | 1.83 mL/min/kg | O=C(O)c1ccc2nc(Cc3ccc(-c4ccc(F)c(OCc5ccc(C(F)F)cc5F)n4)cc3F)n(C[C@@H]3CCO3)c2c1 [Example 773]
6 | 60 pM | 2.08 mL/min/kg | O=C(O)c1cc(F)c2nc(Cc3ccc(-c4ccc(F)c(OCc5ccc(C(F)F)cc5F)n4)cc3F)n(C[C@@H]3CCO3)c2c1 [Example 774]
7 | 100 pM | 3.17 mL/min/kg | N#Cc1ccc(COc2cccc(-c3cc(CO)c(Cc4nc5ccc(C(=O)O)cc5n4C[C@@H]4CCO4)cc3F)n2)c(F)c1 [Example 775]
8 | 26800 pM | 3.17 mL/min/kg | N#Cc1cc(F)c(COc2cccc(-c3ccc(Cc4nc5c(F)cc(C(=O)O)cc5n4C[C@@H]4CCO4)cc3F)n2)cc1F [Example 776]
9 | 730 pM | 4.5 mL/min/kg | N#Cc1ccc(COc2ccnc(-c3ccc(Cc4nc5ccc(C(=O)O)cc5n4C[C@@H]4CCO4)cc3F)n2)c(F)c1 [Example 777]
10 | 130 pM | 3.67 mL/min/kg | N#Cc1ccc(COc2ccnc(-c3cc(F)c(Cc4nc5c(F)cc(C(=O)O)cc5n4C[C@@H]4CCO4)cc3F)n2)c(F)c1 [Example 778]
11 | 170 pM | 1.83 mL/min/kg | N#Cc1ccc(COc2nc(-c3cc(F)c(Cc4nc5c(F)cc(C(=O)O)cc5n4C[C@@H]4CCO4)cc3F)ccc2F)cn1 [Example 779]
12 | 120 pM | 1.83 mL/min/kg | N#Cc1ccc(COc2nc(-c3ccc(Cc4nc5c(F)cc(C(=O)O)cc5n4C[C@@H]4CCO4)cc3F)ccc2F)c(F)c1 [Example 780]
13 | 30 pM | 3.17 mL/min/kg | O=C(O)c1cc(F)c2nc(Cc3cc(F)c(-c4nc(OCc5ccc(C(F)(F)F)cc5F)ccc4F)cc3F)n(C[C@@H]3CCO3)c2c1 [Example 781]
14 | 3310 pM | 11.2 mL/min/kg | N#Cc1ccc(COc2ccc(F)c(-c3cc(F)c(Cc4nc5c(F)cc(C(=O)O)cc5n4CC45COC(C4)C5)cc3F)n2)c(F)c1 [Example 782]
15 | 110 pM | 1.83 mL/min/kg | O=C(O)c1cc(F)c2nc(Cc3cc(F)c(-c4cccc(OCc5ccc(C(F)(F)F)cc5F)n4)cc3F)n(Cc3ncco3)c2c1 [Example 783]
16 | 550 pM | 1.83 mL/min/kg | N#Cc1cc(F)c(COc2cccc(-c3cc(F)c(Cc4nc5c(F)cc(C(=O)O)cc5n4Cc4ncco4)cc3F)n2)cc1F [Example 784]
17 | 50 pM | 1.83 mL/min/kg | O=C(O)c1ccc2nc(Cc3cc(F)c(-c4ccnc(OCc5ccc(C(F)(F)F)cc5F)n4)cc3F)n(C[C@@H]3CCO3)c2c1 [Example 785]
18 | 220 pM | 1.83 mL/min/kg | N#Cc1cc(F)c(COc2nccc(-c3cc(F)c(Cc4nc5ccc(C(=O)O)cc5n4C[C@@H]4CCO4)cc3F)n2)cc1F [Example 786]
19 | 170 pM | 5.5 mL/min/kg | O=C(O)c1ccc2nc(Cc3ccc(-c4ccnc(OCc5ccc(C(F)(F)F)cc5F)n4)c(F)c3)n(C[C@@H]3CCO3)c2c1 [Example 788]
20 | 1180 pM | 5.67 mL/min/kg | N#Cc1cc(F)c(COc2nccc(-c3ccc(Cc4nc5ccc(C(=O)O)cc5n4C[C@@H]4CCO4)cc3F)n2)cc1F [Example 789]
21 | 440 pM | 3 mL/min/kg | O=C(O)c1ccc2nc(Cc3ccc(-c4ccnc(OCc5ccc(C(F)F)cc5F)n4)c(F)c3)n(C[C@@H]3CCO3)c2c1 [Example 790]
22 | 2750 pM | 4.83 mL/min/kg | COCCn1c(Cc2cc(F)c(-c3nc(OCc4ccc(C#N)cc4F)ccc3F)cc2F)nc2c(F)cc(C(=O)O)cc21 [Example 791]
23 | 40 pM | 6.17 mL/min/kg | N#Cc1ccc(COc2ccc(F)c(-c3cc(F)c(Cc4nc5c(F)cc(C(=O)O)cc5n4C[C@@H]4CCO4)cc3F)n2)c(F)c1 [Example 792]
24 | 170 pM | 5.67 mL/min/kg | N#Cc1ccc(COc2ccc(F)c(-c3cc(F)c(Cc4nc5ccc(C(=O)O)cc5n4C[C@@H]4CCO4)cc3F)n2)c(F)c1 [Example 793]

Row | EC50 [1] | Predicted Hepatic Clearance (Pred. Cl.) [2] | SMILES
25 | 970 pM | 6.17 mL/min/kg | N#Cc1ccc(COc2ccc(F)c(-c3ccc(Cc4nc5ccc(C(=O)O)cc5n4C[C@@H]4CCO4)cc3)n2)c(F)c1 [Example 794]
26 | 650 pM | 1.83 mL/min/kg | N#Cc1ccc(COc2nc(-c3ccc(Cc4nc5ccc(C(=O)O)cc5n4C[C@@H]4CCO4)cc3)ccc2F)c(F)c1 [Example 795]
27 | 30 pM | 1.83 mL/min/kg | N#Cc1cc(F)c(COc2cccc(-c3cc(F)c(Cc4nc5c(F)cc(C(=O)O)cc5n4C[C@@H]4CCO4)cc3F)n2)cc1F [Example 796]
28 | 270 pM | 7.17 mL/min/kg | N#Cc1ccc(COc2ccc(F)c(-c3ccc(Cc4nc5ccc(C(=O)O)cc5n4C[C@@H]4CCO4)c(F)c3)n2)c(F)c1 [Example 797]
29 | 120 pM | 5.33 mL/min/kg | N#Cc1cc(F)c(COc2cccc(-c3cc(F)c(Cc4nc5ccc(C(=O)O)cc5n4C[C@@H]4CCO4)cc3F)n2)cc1F [Example 798]
30 | 135000 pM | 2.67 mL/min/kg | COCCn1c(Cc2cc(F)c(-c3cccc(OCc4ccc(C#N)cc4)n3)cc2F)nc2c(F)cc(C(=O)O)cc21 [Example 799]
31 | 100 pM | 1.83 mL/min/kg | O=C(O)c1ccc2nc(Cc3cc(F)c(-c4cccc(OCc5ccc(C(F)F)cc5F)n4)cc3F)n(C[C@@H]3CCO3)c2c1 [Example 800]
32 | 120 pM | 3.17 mL/min/kg | O=C(O)c1ccc2nc(Cc3cc(F)c(-c4ccnc(OCc5ccc(C(F)F)cc5F)n4)cc3F)n(C[C@@H]3CCO3)c2c1 [Example 801]
33 | 3640 pM | 2.33 mL/min/kg | COCCn1c(Cc2cc(F)c(-c3cccc(OCc4ccc(Cl)c(F)c4F)n3)cc2F)nc2ccc(C(=O)O)cc21 [Example 802]
34 | 5950 pM | 13.3 mL/min/kg | COCCn1c(Cc2cc(F)c(-c3cccc(OCc4ccc(C)cn4)n3)cc2F)nc2ccc(C(=O)O)cc21 [Example 803]
35 | 43600 pM | 11.5 mL/min/kg | COCCn1c(Cc2cc(F)c(-c3cccc(OCc4cc(C#N)cs4)n3)cc2F)nc2ccc(C(=O)O)cc21 [Example 804]
36 | 7120 pM | 12 mL/min/kg | COCCn1c(Cc2cc(F)c(-c3cccc(OCc4ccc(C#N)s4)n3)cc2F)nc2ccc(C(=O)O)cc21 [Example 805]
37 | 540 pM | 7.17 mL/min/kg | O=C(O)c1ccc2nc(Cc3ccc(-c4cccc(OCc5ccc(Cl)nc5)n4)c(F)c3)n(C[C@@H]3CCO3)c2c1 [Example 806]
38 | 180 pM | 3.33 mL/min/kg | N#Cc1ccc(COc2cccc(-c3cc(F)c(Cc4nc5ccc(C(=O)O)cc5n4C[C@@H]4CCO4)cc3F)n2)cn1 [Example 807]
39 | 50 pM | 3.5 mL/min/kg | O=C(O)c1ccc2nc(Cc3cc(F)c(-c4cccc(OCc5ccc(Cl)cc5)n4)cc3F)n(C[C@@H]3CCO3)c2c1 [Example 808]
40 | 1050 pM | 2.83 mL/min/kg | COCCn1c(Cc2cc(F)c(-c3cccc(OCc4ccc(C(F)F)cc4)n3)cc2F)nc2ccc(C(=O)O)cc21 [Example 809]
41 | 330 pM | 6.83 mL/min/kg | COCCn1c(Cc2cc(F)c(-c3cccc(OCc4ccc(C)cc4F)n3)cc2F)nc2ccc(C(=O)O)cc21 [Example 810]
42 | 3570 pM | 10 mL/min/kg | COCCn1c(Cc2cc(F)c(-c3cccc(OCc4ccc(C)nc4)n3)cc2F)nc2ccc(C(=O)O)cc21 [Example 811]
43 | 24900 pM | 1.83 mL/min/kg | COCCn1c(Cc2cc(F)c(-c3cccc(OCc4ccc(F)nc4)n3)cc2F)nc2ccc(C(=O)O)cc21 [Example 812]
44 | 2980 pM | 1.83 mL/min/kg | COCCn1c(Cc2cc(F)c(-c3cccc(OCc4ccc(Cl)nc4)n3)cc2F)nc2ccc(C(=O)O)cc21 [Example 813]
45 | 2140 pM | 6.17 mL/min/kg | COCCn1c(Cc2cc(F)c(-c3cccc(OCc4ccc(C)cc4)n3)cc2F)nc2ccc(C(=O)O)cc21 [Example 814]
46 | 2490 pM | 1.83 mL/min/kg | COCCn1c(Cc2cc(F)c(-c3cccc(OCc4ccc(F)cc4F)n3)cc2F)nc2ccc(C(=O)O)cc21 [Example 815]
47 | 1000 pM | 9.5 mL/min/kg | COCCn1c(Cc2cc(F)c(-c3cccc(OCc4ccc(F)cc4C)n3)cc2F)nc2ccc(C(=O)O)cc21 [Example 816]
48 | 10300 pM | 9 mL/min/kg | COCCn1c(Cc2cc(F)c(-c3cccc(OCc4ccc(CC#N)cc4)n3)cc2F)nc2ccc(C(=O)O)cc21 [Example 817]
